According to patent publication US20030220386A1, “Delta 1-pyrrolines for use as pesticides” (priority 2000, published 2003):

Assays:
[1] = logP determination by HPLC (reversed-phase C 18), EEC Directive 79/831 Annex V.A8; type: physicochemical; settings: reversed-phase C18 HPLC column, pH 2.3, 0.1% aqueous phosphoric acid/acetonitrile, 43° C., read-out: log P (pH 2.3)
Method: The logP values given in the tables and preparation examples above are determined in accordance with EEC Directive 79/831 Annex V.A8 by HPLC (High Performance Liquid Chromatography) using a reversed-phase column (C 18). Temperature: 43° C.
In the acidic range, the determination is carried out at pH 2.3 using the mobile phases 0.1% aqueous phosphoric acid and acetonitrile; linear gradient from 10% acetonitrile to 90% acetonitrile.
In the neutral range, the determination is carried out at pH 7.5 using the mobile phases 0.01 molar aqueous phosphate buffer solution and acetonitrile; linear gradient from 10% acetonitrile to 90% acetonitrile.
Calibration is carried out using unbranched alkan-2-ones (of 3 to 16 carbon atoms) with known logP values (determination of the logP values by the retention times using linear interpolation between two successive alkanones).

[2] = test system: larvae of the armyworm (Spodoptera frugiperda); assay: Spodoptera frugiperda test; type: in vivo; settings: cabbage leaves dipped
[3] = test system: greenhouse red spider mite (Tetranychus urticae); assay: Tetranychus test (OP-resistant/dip treatment); type: in vivo; settings: 100 ppm, bean plants dipped
Method: (§1) After the desired period of time, the activity in % is determined.

[4] = test system: caterpillars of the diamondback moth (Plutella xylostella); assay: Plutella test; type: in vivo; settings: cabbage leaves dipped
Lucilia cuprina larvae = assay: Blowfly larvae test/Development-inhibitory action; type: in vivo; settings: 100 ppm; mortality of the larvae after 48 hours
Method: (§2) 20 mg of active compound are dissolved in one ml of dimethyl sulphoxide. To prepare a suitable formulation, the solution of active compound is diluted with water to the concentration desired in each case.
About 20 Lucilia cuprina larvae are introduced into a test tube which contains about 1 cm^3 of horsemeat and 0.5 ml of the preparation of active compound to be tested. The activity of the preparation of active compound is determined after 48 hours as the mortality of the larvae in %.
The test tubes are then transferred into a beaker whose bottom is covered with sand. After a further 12 days, the test tubes are removed and the pupae and flies are counted. The development-inhibitory action is stated as inhibition of hatching in % (ratio of pupae to flies that have hatched) after 1.5 times the development period of an untreated control.

[5] = test system: fruit tree spider mite (Panonychus ulmi); assay: Panonychus test; type: in vivo; settings: 200 ppm, plum trees sprayed
Method: as §1

[6] = test system: larvae of the mustard beetle (Phaedon cochleariae); assay: Phaedon larvae test; settings: 1000 ppm, cabbage leaves dipped
[7] = test system: cotton aphid (Aphis gossypii); assay: Aphis gossypii test; type: in vivo; settings: 100 ppm, cotton leaves dipped
[8] = test system: peach aphid (Myzus persicae); assay: Myzus test; type: in vivo; settings: 500 ppm, cabbage leaves dipped
[9] = test system: Amblyomma hebraeum nymphs; assay: Test with polyphagous tick nymphs, dip treatment; type: in vivo; settings: nymphs immersed for 1 minute; after 4 weeks
Method: as §2
10 nymphs which have sucked themselves full are immersed for 1 minute into the preparation of active compound to be tested. The animals are transferred to Petri dishes (Ø 9.5 cm) fitted with filter discs and covered. After 4 weeks of storage in a climatized room, the mortality is determined.
100% means that none of the animals has undergone normal ecdysis. 0% means that all animals have undergone ecdysis.

[10] = test system: larvae of the armyworm (Spodoptera exigua); assay: Spodoptera exigua test; type: in vivo; settings: 500 ppm, cabbage leaves dipped
Meloidogyne incognita = assay: Meloidogyne test; type: in vivo; settings: 20 ppm, nematicidal action by formation of galls on lettuce roots
Method: Vessels are filled with sand, solution of active compound, Meloidogyne incognita egg/larvae suspension and lettuce seeds. The lettuce seeds germinate and the plants develop. On the roots, galls are formed.
After the desired period of time, the nematicidal action is determined in % by the formation of galls. 100% means that no galls were found; 0% means that the number of galls on the treated plants corresponds to that of the untreated control.

[11] = test system: Heliothis virescens caterpillars; assay: Heliothis virescens test; type: in vivo; settings: 5 ppm, soya bean shoots dipped

| SMILES | chromatographic logP [1] | Kill rate in % after 6 days ([2]; 500 ppm) [%] | Kill rate in % after 7 days [3] [%] | Kill rate in % after 6 days ([4]; 500 ppm) [%] | Action in % after 48 hours (Lucilia cuprina larvae) [%] | Kill rate in % after 7 days [5] [%] | Kill rate in % after 7 days [6] [%] | Kill rate in % after 6 days [7] [%] | Kill rate in % after 6 days [8] [%] | activity (mortality / no normal ecdysis) [9] | Kill rate in % after 6 days [10] [%] | Kill rate in % after 6 days ([2]; 1000 ppm) [%] | Kill rate in % after 14 days (Meloidogyne incognita) [%] | Kill rate in % after 6 days [11] [%] | Kill rate in % after 6 days ([4]; 5 ppm) [%] |
| --- | --- | --- | --- | --- | --- | --- | --- | --- | --- | --- | --- | --- | --- | --- | --- |
| O=S(=O)(Oc1ccc([C@H]2CCC(c3c(F)cccc3F)=N2)cc1)C(F)(F)F [I-2, (2R)-4-[5-(2,6-Difluorophenyl)-3,4-dihydro-2H-pyrrol-2-yl]phenyl trifluoromethanesulphonate] | 3.55 | 95 | 98 | 100 | 100 | 98 | 100 | 90 | 98 | good activity | 100 |  |  |  |  |
| O=S(=O)(Oc1ccc(-c2ccc([C@H]3CCC(c4c(F)cccc4F)=N3)cc2)cc1)C(F)(F)F [I-5, 4′-[(2R)-5-(2,6-difluorophenyl)-3,4-dihydro-2H-pyrrol-2-yl]-1,1′-biphenyl-4-yl trifluoromethanesulphonate] | 4.27 |  |  |  | 100 |  | 100 |  |  | good activity |  | 100 | 100 | 100 | 100 |
